6 compounds from patent publication US20250120967A1, “TYROSINE KINASES INHIBITORS AND USES THEREOF” (GREAT NOVEL THERAPEUTICS BIOTECH & MEDICALS CORPORATION, priority 2023, published 2025) can be followed below.

For one test, the system named is CT-26 cells. Briefly: In vitro cytotoxicity assay (MTT, 72 h). It counts as cell-based, murine. The conditions noted are these: Mus musculus, CT26, growth inhibition. The procedure:
Six different cell lines were used, including human breast cancer cell lines MDA-MB-231 (6×10^3) and MDA-MB-453 (2.4×10^4), human colorectal cell line SW48 (2.4×10^4), human breast epithelial cell line M10 (6×10^3), human cancer cell line A549 (1.4×10^3), and murine colorectal carcinoma tumors CT26 (6×10^3), which were seeded in a 96-well plate. […] After 72 h, MTT assay (Cayman™) was used to determine the cellular viability.

A further test has as its target BTK (Homo sapiens, UniProt Q06187). The test is described as follows: Tyrosine kinase inhibition assay. It counts as biochemical. The following applies: for IC50: read-out: IC50 of compound; for inhibition at 1 µM: single concentration 1.0 μM, read-out: percent inhibition. The procedure: (§1) Tyrosine kinase inhibition assays were performed at ThermoFisher Life Technologies (Madison, WI, USA) using standard protocols (SelectScreen Biochemical Profiling Service, Thermo Fisher Scientific). ATP concentrations used were at the apparent Km. Test compounds were screened in 1% dimethylsulffoxide (DMSO) (final concentration) in the well. For 10-point titrations, 3-fold serial dilutions were conducted from the starting concentration of […]. All Peptide/Kinase Mixtures were diluted to a 2× working concentration in the appropriate Kinase Buffer. All ATP Solutions were diluted to a 4× working concentration in Kinase Buffer (50 mM HEPES pH 7.5, 0.01% BRIJ-35, 10 mM MgCl2, 1 mM EGTA). The apparent ATP Km was previously determined using a Z′-LYTE assay. The Development Reagent was diluted in Development Buffer.
(§2) The inhibition activities of compounds were determined in biochemical assays using single concentration (1.0 μM) measurements. The results were provided as percent inhibition values. A compound displaying a percent inhibition value of greater 80% was defined as a hit. 99 different tyrosine kinases were used.

The target in the next test is EPHA2 (Homo sapiens, UniProt P29317). Briefly: Tyrosine kinase inhibition assay. It counts as biochemical. The conditions noted are these: for IC50: read-out: IC50 of compound; for inhibition at 1 µM: single concentration 1.0 μM, read-out: percent inhibition. The procedure:
as §1, §2

The target of a further test is FER (Homo sapiens, UniProt P16591). The test is described as follows: Tyrosine kinase inhibition assay. In kind it is biochemical. The conditions noted are these: for IC50: read-out: IC50 of compound; for inhibition at 1 µM: single concentration 1.0 μM, read-out: percent inhibition. The procedure:
as §1, §2

For a further test, the target named is FGR (Homo sapiens, UniProt P09769). Briefly: Tyrosine kinase inhibition assay. In kind it is biochemical. The following applies: for IC50: read-out: IC50 of compound; for inhibition at 1 µM: single concentration 1.0 μM, read-out: percent inhibition. The procedure:
as §1, §2

A further test deals with FLT4 (VEGFR3) (Homo sapiens, UniProt P35916). The test is described as follows: Tyrosine kinase inhibition assay. It counts as biochemical. The conditions noted are these: for IC50: read-out: IC50 of compound; for inhibition at 1 µM: single concentration 1.0 μM, read-out: percent inhibition. The procedure: as §1, §2
Sequence of FLT4 (VEGFR3) (P35916 25-1363): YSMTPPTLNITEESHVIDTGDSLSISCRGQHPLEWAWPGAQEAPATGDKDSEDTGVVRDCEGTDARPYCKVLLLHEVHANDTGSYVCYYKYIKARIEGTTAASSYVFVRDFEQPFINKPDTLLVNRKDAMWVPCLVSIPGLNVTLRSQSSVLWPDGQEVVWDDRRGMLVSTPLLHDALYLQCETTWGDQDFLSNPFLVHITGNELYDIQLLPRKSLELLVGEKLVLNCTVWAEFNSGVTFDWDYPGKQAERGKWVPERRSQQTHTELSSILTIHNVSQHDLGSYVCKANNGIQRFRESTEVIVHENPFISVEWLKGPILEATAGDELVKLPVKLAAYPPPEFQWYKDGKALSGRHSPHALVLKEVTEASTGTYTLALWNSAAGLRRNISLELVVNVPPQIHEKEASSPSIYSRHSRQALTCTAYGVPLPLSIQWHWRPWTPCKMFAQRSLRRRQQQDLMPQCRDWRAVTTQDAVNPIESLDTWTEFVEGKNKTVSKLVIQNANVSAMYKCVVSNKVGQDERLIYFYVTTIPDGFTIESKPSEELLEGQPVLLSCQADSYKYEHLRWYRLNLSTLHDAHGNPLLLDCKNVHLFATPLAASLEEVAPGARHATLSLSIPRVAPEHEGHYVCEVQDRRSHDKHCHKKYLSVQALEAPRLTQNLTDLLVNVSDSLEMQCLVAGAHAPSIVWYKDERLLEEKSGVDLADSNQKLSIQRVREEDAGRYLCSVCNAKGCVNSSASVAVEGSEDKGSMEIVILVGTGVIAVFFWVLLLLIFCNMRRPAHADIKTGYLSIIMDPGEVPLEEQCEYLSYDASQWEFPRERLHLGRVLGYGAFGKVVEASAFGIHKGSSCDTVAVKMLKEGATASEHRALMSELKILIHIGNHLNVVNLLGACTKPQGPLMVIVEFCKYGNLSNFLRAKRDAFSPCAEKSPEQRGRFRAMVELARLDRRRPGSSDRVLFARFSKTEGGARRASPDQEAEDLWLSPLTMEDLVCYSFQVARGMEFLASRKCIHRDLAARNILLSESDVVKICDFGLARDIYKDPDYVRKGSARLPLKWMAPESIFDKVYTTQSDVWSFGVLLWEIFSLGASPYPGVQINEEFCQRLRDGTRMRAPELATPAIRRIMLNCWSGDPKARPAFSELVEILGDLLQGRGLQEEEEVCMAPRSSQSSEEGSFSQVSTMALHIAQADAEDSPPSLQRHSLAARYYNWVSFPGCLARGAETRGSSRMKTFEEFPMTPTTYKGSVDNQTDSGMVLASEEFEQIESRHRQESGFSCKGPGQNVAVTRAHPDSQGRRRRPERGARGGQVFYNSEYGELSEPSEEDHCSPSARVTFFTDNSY
The target in the next test is HCK (Homo sapiens, UniProt P08631). The test is described as follows: Tyrosine kinase inhibition assay. It counts as biochemical. The conditions noted are these: for IC50: read-out: IC50 of compound; for inhibition at 1 µM: single concentration 1.0 μM, read-out: percent inhibition. The procedure: as §1, §2
Sequence of HCK (P08631 whole entry): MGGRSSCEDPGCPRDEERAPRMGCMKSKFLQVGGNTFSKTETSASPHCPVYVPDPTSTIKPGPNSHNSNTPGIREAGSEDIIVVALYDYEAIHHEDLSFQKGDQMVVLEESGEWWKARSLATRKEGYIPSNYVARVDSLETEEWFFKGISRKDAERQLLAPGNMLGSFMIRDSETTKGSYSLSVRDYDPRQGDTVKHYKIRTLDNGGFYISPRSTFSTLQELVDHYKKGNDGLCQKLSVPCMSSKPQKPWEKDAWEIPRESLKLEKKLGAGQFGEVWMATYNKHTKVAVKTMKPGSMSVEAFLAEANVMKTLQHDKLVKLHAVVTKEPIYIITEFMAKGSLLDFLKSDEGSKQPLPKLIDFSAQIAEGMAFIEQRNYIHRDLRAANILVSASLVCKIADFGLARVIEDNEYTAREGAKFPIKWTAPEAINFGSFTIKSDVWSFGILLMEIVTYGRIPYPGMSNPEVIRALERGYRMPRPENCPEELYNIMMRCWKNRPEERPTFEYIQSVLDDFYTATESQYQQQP
The target in another test is INSRR (IRR) (Homo sapiens, UniProt P14616). The test is described as follows: Tyrosine kinase inhibition assay. In kind it is biochemical. The following applies: for IC50: read-out: IC50 of compound; for inhibition at 1 µM: single concentration 1.0 μM, read-out: percent inhibition. The method, then: as §1, §2
The target of a further test is LCK (Homo sapiens, UniProt P06239). The test is described as follows: Tyrosine kinase inhibition assay. In kind it is biochemical. The following applies: for IC50: read-out: IC50 of compound; for inhibition at 1 µM: single concentration 1.0 μM, read-out: percent inhibition. The method, then: as §1, §2
The target in another test is LYN A (Homo sapiens, UniProt P07948). Briefly: Tyrosine kinase inhibition assay. The following applies: for IC50: read-out: IC50 of compound; for inhibition at 1 µM: single concentration 1.0 μM, read-out: percent inhibition. It counts as biochemical. The procedure: as §1, §2
Another test has as its target LYN B (Homo sapiens, UniProt P07948). Briefly: Tyrosine kinase inhibition assay. The following applies: for inhibition at 1 µM: single concentration 1.0 μM, read-out: percent inhibition. It counts as biochemical. The method, then: as §1, §2
The next test deals with NTRK2 (TRKB) (Homo sapiens, UniProt Q16620). Briefly: Tyrosine kinase inhibition assay. The conditions noted are these: for inhibition at 1 µM: single concentration 1.0 μM, read-out: percent inhibition. In kind it is biochemical. The procedure:
as §1, §2

Another test has as its target PDGFRA (PDGFR alpha) (Homo sapiens, UniProt P16234). The test is described as follows: Tyrosine kinase inhibition assay. It counts as biochemical. The conditions noted are these: for IC50: read-out: IC50 of compound; for inhibition at 1 µM: single concentration 1.0 μM, read-out: percent inhibition. The procedure: as §1, §2
Another test concerns the target ROS1 (Homo sapiens, UniProt P08922). Briefly: Tyrosine kinase inhibition assay. It counts as biochemical. The following applies: for IC50: read-out: IC50 of compound; for inhibition at 1 µM: single concentration 1.0 μM, read-out: percent inhibition. The procedure: as §1, §2
For the next test, the target named is SRC (Homo sapiens, UniProt P12931). Briefly: Tyrosine kinase inhibition assay. In kind it is biochemical. The conditions noted are these: for IC50: read-out: IC50 of compound; for inhibition at 1 µM: single concentration 1.0 μM, read-out: percent inhibition. The procedure: as §1, §2
Sequence of SRC (P12931 whole entry): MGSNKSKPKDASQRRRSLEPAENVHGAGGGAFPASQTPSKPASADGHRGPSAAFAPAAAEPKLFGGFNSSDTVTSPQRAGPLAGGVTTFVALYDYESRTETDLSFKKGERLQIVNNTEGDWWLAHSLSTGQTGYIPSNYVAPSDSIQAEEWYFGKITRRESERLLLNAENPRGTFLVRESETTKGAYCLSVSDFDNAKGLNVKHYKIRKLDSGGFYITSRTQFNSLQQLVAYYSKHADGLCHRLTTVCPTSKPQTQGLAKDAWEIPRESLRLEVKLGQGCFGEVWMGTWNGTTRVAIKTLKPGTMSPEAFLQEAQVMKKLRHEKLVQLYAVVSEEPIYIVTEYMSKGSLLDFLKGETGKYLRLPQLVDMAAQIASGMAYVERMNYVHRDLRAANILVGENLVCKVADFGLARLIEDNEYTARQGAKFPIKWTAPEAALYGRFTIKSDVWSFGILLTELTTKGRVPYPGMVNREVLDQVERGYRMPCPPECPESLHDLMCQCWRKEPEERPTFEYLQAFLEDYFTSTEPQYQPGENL
The next test has as its target FRK (PTK5) (Homo sapiens, UniProt P42685). The test is described as follows: Tyrosine kinase inhibition assay. In kind it is biochemical. The following applies: for inhibition at 1 µM: single concentration 1.0 μM, read-out: percent inhibition; for IC50: read-out: IC50 of compound. The method, then:
as §1
(§3) The inhibition activities of compounds were determined in biochemical assays using single concentration (1.0 μM) measurements. The results were provided as percent inhibition values.

The next test addresses RET (Homo sapiens, UniProt P07949). The test is described as follows: Tyrosine kinase inhibition assay. It counts as biochemical. The conditions noted are these: for inhibition at 1 µM: single concentration 1.0 μM, read-out: percent inhibition. The procedure: as §1, §3
The mark [1] stands for this setting: LYN B, read-out: IC50 of compound.
The mark [2] stands for this setting: NTRK2 (TRKB), read-out: IC50 of compound.

Each structure is given as a SMILES string. Read-outs that look alike come from different tables or passages of the source.

Sequence of LYN B (P07948 1-491 isoform P07948-2): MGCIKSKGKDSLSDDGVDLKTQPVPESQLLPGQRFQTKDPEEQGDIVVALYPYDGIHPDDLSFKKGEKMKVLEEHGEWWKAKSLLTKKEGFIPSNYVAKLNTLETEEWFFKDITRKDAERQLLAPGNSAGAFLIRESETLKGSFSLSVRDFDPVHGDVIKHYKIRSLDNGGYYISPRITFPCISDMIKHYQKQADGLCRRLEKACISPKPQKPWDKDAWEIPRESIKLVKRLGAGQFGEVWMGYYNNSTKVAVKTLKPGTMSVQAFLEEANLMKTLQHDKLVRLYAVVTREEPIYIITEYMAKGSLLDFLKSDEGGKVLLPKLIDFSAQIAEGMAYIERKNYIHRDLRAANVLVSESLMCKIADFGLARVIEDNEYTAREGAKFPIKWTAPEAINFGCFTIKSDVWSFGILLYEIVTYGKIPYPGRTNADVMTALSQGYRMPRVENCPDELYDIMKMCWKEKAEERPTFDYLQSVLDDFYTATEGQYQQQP
Sequence of NTRK2 (TRKB) (Q16620 32-822): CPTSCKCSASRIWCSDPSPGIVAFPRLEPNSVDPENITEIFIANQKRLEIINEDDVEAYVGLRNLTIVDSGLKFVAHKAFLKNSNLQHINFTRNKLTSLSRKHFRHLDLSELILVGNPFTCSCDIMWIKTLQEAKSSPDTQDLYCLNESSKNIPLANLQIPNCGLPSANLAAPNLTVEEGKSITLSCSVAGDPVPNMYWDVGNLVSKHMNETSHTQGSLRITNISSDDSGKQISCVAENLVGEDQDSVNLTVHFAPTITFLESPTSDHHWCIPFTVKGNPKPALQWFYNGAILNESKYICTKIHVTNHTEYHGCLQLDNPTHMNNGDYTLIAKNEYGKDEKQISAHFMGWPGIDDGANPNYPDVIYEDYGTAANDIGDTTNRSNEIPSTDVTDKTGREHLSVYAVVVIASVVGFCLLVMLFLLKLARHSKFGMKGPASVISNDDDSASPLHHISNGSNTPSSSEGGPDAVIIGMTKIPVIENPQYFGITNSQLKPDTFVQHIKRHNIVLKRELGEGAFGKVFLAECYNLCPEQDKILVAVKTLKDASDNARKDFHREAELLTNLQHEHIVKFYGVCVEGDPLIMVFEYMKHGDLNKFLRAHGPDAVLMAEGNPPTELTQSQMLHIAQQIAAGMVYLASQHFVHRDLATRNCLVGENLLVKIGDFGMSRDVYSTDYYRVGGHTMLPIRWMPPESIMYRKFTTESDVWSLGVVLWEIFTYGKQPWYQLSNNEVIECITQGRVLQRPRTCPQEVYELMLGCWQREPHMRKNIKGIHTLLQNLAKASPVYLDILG
Sequence of RET (P07949 29-1114): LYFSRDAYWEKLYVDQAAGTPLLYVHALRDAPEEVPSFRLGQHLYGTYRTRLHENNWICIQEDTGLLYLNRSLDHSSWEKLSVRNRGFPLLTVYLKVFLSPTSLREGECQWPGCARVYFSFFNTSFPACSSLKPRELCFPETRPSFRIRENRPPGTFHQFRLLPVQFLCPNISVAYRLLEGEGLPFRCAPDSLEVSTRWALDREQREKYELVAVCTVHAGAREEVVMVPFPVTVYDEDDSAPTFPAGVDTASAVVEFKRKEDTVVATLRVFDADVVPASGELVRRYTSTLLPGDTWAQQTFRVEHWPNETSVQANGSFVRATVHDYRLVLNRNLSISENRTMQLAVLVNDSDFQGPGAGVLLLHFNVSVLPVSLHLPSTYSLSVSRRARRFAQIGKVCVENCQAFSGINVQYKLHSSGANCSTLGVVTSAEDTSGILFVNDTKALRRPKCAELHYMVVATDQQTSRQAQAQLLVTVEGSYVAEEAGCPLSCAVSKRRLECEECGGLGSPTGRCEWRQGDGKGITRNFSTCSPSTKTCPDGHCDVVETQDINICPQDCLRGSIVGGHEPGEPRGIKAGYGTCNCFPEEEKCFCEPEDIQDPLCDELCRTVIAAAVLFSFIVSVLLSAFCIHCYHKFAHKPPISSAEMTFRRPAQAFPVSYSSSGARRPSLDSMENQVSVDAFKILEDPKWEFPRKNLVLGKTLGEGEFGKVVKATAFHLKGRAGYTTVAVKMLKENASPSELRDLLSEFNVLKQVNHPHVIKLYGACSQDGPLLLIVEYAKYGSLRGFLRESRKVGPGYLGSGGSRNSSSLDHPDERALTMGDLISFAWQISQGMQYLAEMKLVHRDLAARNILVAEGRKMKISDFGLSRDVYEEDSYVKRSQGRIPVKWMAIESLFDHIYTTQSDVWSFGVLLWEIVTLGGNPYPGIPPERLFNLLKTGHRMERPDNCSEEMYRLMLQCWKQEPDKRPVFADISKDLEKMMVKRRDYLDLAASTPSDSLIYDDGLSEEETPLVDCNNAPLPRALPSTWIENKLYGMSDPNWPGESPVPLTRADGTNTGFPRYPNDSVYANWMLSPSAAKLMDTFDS

In the case of `COc1cc2nccc(Oc3ccc(NC(=O)C4(C(=O)Nc5ccc(F)cc5)CC4)cc3)c2cc1OC` [Cabozantinib, reference compound], the IC50 in the test with CT-26 cells worked out at 19600 ± 4300 nM; on BTK it was 172 nM; at EPHA2, 37.7 nM; on FER, 424 nM; on FGR, 88.8 nM; on FLT4 (VEGFR3), 30.3 nM. Besides, the IC50 on HCK is 111 nM; on INSRR (IRR), 386 nM; on LCK, 38.1 nM; at LYN A it was 217 nM; against LYN B, 67.7 nM; against NTRK2 (TRKB), 53.3 nM. Besides, the IC50 on PDGFRA (PDGFR alpha) was 84.1 nM; on ROS1, 60.6 nM; on SRC, 141 nM. In addition, the inhibition at 1 µM on BTK was 82%; on EPHA2, 95%; on FER it was 89%; at FGR, 97%; at FLT4 (VEGFR3) it was 95%; at HCK, 90%. The inhibition at 1 µM at INSRR (IRR) came out at 38%; on LCK it was 95%; at LYN A, 92%; at LYN B (LYN B), 91%; on NTRK2 (TRKB) (NTRK2 (TRKB)), 95%; at PDGFRA (PDGFR alpha) it was 92%. The inhibition at 1 µM at ROS1 was found to be 87%; on SRC it was 89%; at FRK (PTK5) it was 99%; on RET, 98%.

Take `COc1cc2nccc(Oc3ccc(NC(=O)C4(NC(=O)c5ccc(F)cc5)CC4)cc3F)c2cc1OC` [Cbo-02, N-(1-((4-((6,7-diMethoxyquinolin-4-yl)oxy)-3-fluorophenyl)carbamoyl)cyclopropyl)-4-fluorobenzamide]: in the test with CT-26 cells, half-maximal inhibition (IC50) was put at 8200 ± 600 nM. The inhibition at 1 µM at BTK amounted to 98%; on EPHA2, 33%; on FER, 88%; at FGR it was 74%; on FLT4 (VEGFR3) it was 79%; at HCK, 62%. Moreover, the inhibition at 1 µM at INSRR (IRR) came out at 80%; at LCK it was 85%; on LYN A, 71%; on LYN B (LYN B) it was 81%; at NTRK2 (TRKB) (NTRK2 (TRKB)) it was 23%; at PDGFRA (PDGFR alpha), 48%. For the same compound, the inhibition at 1 µM at ROS1 was 56%; on SRC, 42%; at FRK (PTK5) it was 59%; on RET, 67%.

For the compound `COc1cc2nccc(Oc3ccc(NC(=O)C4(NC(=O)c5ccc(F)cc5)CC4)cc3F)c2cc1Oc1ccc(N)cc1F` [Cbo-10], the IC50 with CT-26 cells was 5010 ± 160 nM. For the same compound, the inhibition at 1 µM on BTK turned out to be 102%; at EPHA2 it was 56%; at FER, 97%; at FGR, 92%; at FLT4 (VEGFR3) it was 92%; on HCK it was 72%. The inhibition at 1 µM was 93% on INSRR (IRR); 96% on LCK; 81% on LYN A; 86% on LYN B (LYN B); 73% on NTRK2 (TRKB) (NTRK2 (TRKB)); 84% on PDGFRA (PDGFR alpha). Also, the inhibition at 1 µM at ROS1 is 95%; at SRC, 86%; at FRK (PTK5) it was 91%; at RET, 79%.

In the test with CT-26 cells, `COc1cc2nccc(Oc3ccc(NC(=O)C4(NC(=O)c5ccc(F)cc5)CC4)cc3F)c2cc1Oc1c(F)cc(N)cc1F` [Cbo-14] registered an IC50 of 4900 ± 110 nM. For the same compound, the inhibition at 1 µM on BTK was 101%; at EPHA2, 61%; at FER it was 99%; at FGR it was 92%; on FLT4 (VEGFR3) it was 92%; at HCK it was 74%. Further, the inhibition at 1 µM on INSRR (IRR) stood at 93%; on LCK it was 97%; at LYN A it was 86%; at LYN B (LYN B), 87%; at NTRK2 (TRKB) (NTRK2 (TRKB)), 88%; on PDGFRA (PDGFR alpha), 94%. The inhibition at 1 µM at ROS1 came out at 97%; on SRC, 86%; on FRK (PTK5) it was 100%; on RET, 89%.

In the case of `COc1cc2nccc(Oc3ccc(NC(=O)C4(C(=O)Nc5ccc(F)cc5)CC4)cc3F)c2cc1Oc1ccc(N)cc1F` [Cbo-23], the IC50 in the test on CT-26 cells amounted to 5180 ± 1730 nM; at BTK it was 9.01 nM; on EPHA2, 20.9 nM; on FER, 24.7 nM; at FGR it was 25.3 nM; on FLT4 (VEGFR3) it was 20.8 nM. Moreover, the IC50 stood at 21.4 nM on HCK; 53.4 nM at INSRR (IRR); 15.9 nM at LCK; 53.1 nM on LYN A; 18.8 nM at LYN B (setting [1]); 14.8 nM at NTRK2 (TRKB) (setting [2]). Further, the IC50 amounted to 36.9 nM at PDGFRA (PDGFR alpha), 5.87 nM at ROS1, 32.1 nM at SRC and 27 nM on FRK (PTK5). In addition, the inhibition at 1 µM at BTK stood at 101%; on EPHA2, 102%; at FER it was 101%; on FGR, 97%; at FLT4 (VEGFR3), 99%; at HCK it was 99%. Also, the inhibition at 1 µM was found to be 97% at INSRR (IRR); 99% at LCK; 92% at LYN A; 96% on LYN B (LYN B); 112% on NTRK2 (TRKB) (NTRK2 (TRKB)); 95% on PDGFRA (PDGFR alpha). Besides, the inhibition at 1 µM at ROS1 was 100%; at SRC it was 94%; on FRK (PTK5), 99%; on RET, 101%.

As to `CNC(=O)c1cc2c(Oc3ccc(NC(=O)C4(C(=O)Nc5ccc(F)cc5)CC4)cc3)ccnc2cc1OC` [Zanzalintinib, reference compound], the IC50 with CT-26 cells was 22000 ± 290 nM; at BTK it was 111 nM; on EPHA2 it was 52.2 nM; at FER, 266 nM; at FGR it was 35.4 nM; on FLT4 (VEGFR3) it was 21.7 nM. The IC50 is 59 nM at HCK; 302 nM on INSRR (IRR); 7.07 nM at LCK; 70.9 nM at LYN A; 30.7 nM on LYN B (setting [1]); 112 nM at NTRK2 (TRKB) (setting [2]). The IC50 at PDGFRA (PDGFR alpha) came out at 93.9 nM; on ROS1, 71.4 nM; on SRC, 45.1 nM; at FRK (PTK5), 10.3 nM; at RET (read-out: IC50 of compound), 22.5 nM.
